From the NIST ThermoML archive (doi:10.1016/j.jct.2004.09.015)

Details: Liquid, Closed cell (Static) method

CC(=O)N(C)C [N,N-dimethylethanamide]
Details	vapor or sublimation pressure [kPa]
323.15 K	1.158
333.15 K	1.982
343.15 K	3.271
353.15 K	5.193
363.15 K	8
373.15 K	12
383.15 K	17.55
393.15 K	25.03
403.15 K	35.04
413.15 K	48.09
423.15 K	64.73
